Data: patent publication US11549142B2, “CETP inhibitors for therapeutic use” (Hoffmann-La Roche Inc., priority 2013, dated 2023)
Where “and” joins values, the source holds several entries; their conditions need not be identical. Identical values can stand only once. Entries after “also recorded” stand apart in the source; their conditions may differ.

System: patients recently hospitalized for an Acute Coronary Syndrome (ACS)
Test: dal-OUTCOMES phase III trial with pharmacogenomic (GWAS) analysis of cardiovascular events by ADCY9 genotype
Assay type: in vivo, human
Design: key to Predicted response: R: Responsive; PR: Partial Responsive; NR: Non Responsive
Procedure: The dalcetrapib mortality and morbidity trial (dal-OUTCOMES) was a double-blind, randomized, placebo-controlled, parallel group, multi-centre study in stable CHD patients recently hospitalized for acute coronary syndrome (ACS). The study was conducted to test the hypothesis that CETP inhibition will reduce the risk of recurrent cardiovascular events in patients with recent ACS by raising levels of HDL-C through CETP inhibition. Eligible patients entered a single-blind placebo run-in period of approximately 4 to 6 weeks to allow for patients to stabilize and for completion of planned revascularization procedures. At the end of the run-in period, eligible patients in stable condition were randomized in a 1:1 ratio to 600 mg of dalcetrapib or placebo on top of evidence-based medical care for ACS. Dalcetrapib is an inhibitor of cholesterol-ester transfer protein (CETP). […] The trial was interrupted in May 2012 by the DSMB on grounds of futility.
Dal-OUTCOMES trial (NC20971) was a double blind, randomized, placebo-controlled, parallel group, multi-center, phase III study to assess the safety and efficacy of the CETP inhibitor dalcetrapib in patients recently hospitalized for an Acute Coronary Syndrome (ACS). At time of the interim analysis the study included 15871 randomized patients, distributed over two treatment arms: placebo (7933 patients) and dalcetrapib (600 mg daily; 7938 patients). […] The dal-OUTCOMES study details can be found in G. Schwartz et al., N. Engl. J. Med. 367; 22, 2012.\
Whole genome analysis was performed in GLP-environment at the Beaulieu-Saucier Pharmacogenomics Centre. The Infinium® HumanOmni25Exome-8v1_A BeadChip (Illumina, San Diego, Calif.) including 2,567,845 genomic markers was used and processed according to the manufacturer's specifications. Approximately 200 ng of genomic DNA was whole-genome amplified, fragmented, and hybridized to locus-specific probes bound to the surface of each BeadChip. DNA was genotyped using a fluorescently labelled single base extension assay. BeadChips were scanned and analyzed using the Illumina® iScan Reader. Infinium® process controls were monitored and all results were within manufacturer's specifications. Scanned images were analyzed using Illumina's GenomeStudio® version 2011.1 with the GenTrain 2.0 cluster algorithm, using a No-Call threshold of 0.15, without manual cluster adjustment and using the manufacturer's Illumina® HumanOmni25Exome-8v1_A cluster file. […] Three genotyping files in PLINK format generated by GenomeStudio® were combined and transformed to binary PLINK format.
Genotyping completion rate for samples and SNPs was set to 98%. SNPs with genotyping plate bias (based on the 96 well plates used to dilute DNA samples) were flagged but not removed as the effect of genetic ancestry could not be excluded. Pairwise IBD was used to conduct close familial relationship checks. We flagged and removed all but one pair-member of related pairs and sample duplicates (IBS2*ratio>0.80) based on a selection of uncorrelated SNPs (r^2<0.1). The pairwise IBS matrix was used as a distance metric to identify cryptic relatedness among samples and sample outliers by multi-dimensional scaling (MDS). The first two MDS components of each subject were plotted including the genotypes of HapMap CEU, JPT-CHB, and YRI data (keeping only founder individuals). Outliers from the main Caucasian cluster were flagged and removed by k-nearest neighbour. (Supplementary FIG. 1) The scree plot and the cumulative explained variance were computed using the smartpca program of the EIGENSOFT suite (version 3.0). Options used were a numoutlieriter (maximum number of outlier removal iterations) of 0 (turned off) and altnormstyle (normalization formula) equal to NO. ^4 (Supplementary FIG. 2)
A statistical analysis plan was developed at the Beaulieu-Saucier Pharmacogenomics Centre and the final version approved prior to genotyping completion in October 2012. […]

SMILES: CCC(CC)CC1(C(=O)Nc2ccccc2SC(=O)C(C)C)CCCCC1 [dalcetrapib, thioisobutyric acid S-(2-{[1-(2-ethyl-butyl)-cyclohexanecarbonyl]-amino}-phenyl) ester]
- event rate in the primary efficacy endpoint (cardiovascular events), dalcetrapib arm compared to the placebo arm (all patients, 600 mg daily): lack of efficacy relative to statins alone; also recorded: did not show a significant reduction in cardiovascular events; also recorded: no evidence of reduction of the event rate
- HDL-c (patients on treatment, dal-OUTCOMES): marked increase
- HR for events, additive genetic effect of one allele (rs1967309, dal-Outcomes treatment arm, Cox proportional hazards): 0.65 (95% CI 0.55, 0.76)
- HR (95% CI) for time to events, dalcetrapib treatment arm only, genotype comparison (rs1967309 AA vs GG): 0.40 (95% CI 0.28, 0.57) and 0.4 (0.28, 0.57)
- HR (95% CI) for time to events, dalcetrapib treatment arm only, genotype comparison (rs1967309 GA vs GG): 0.68 (95% CI 0.55, 0.84) and 0.68 (0.56, 0.84)
- Predicted response (rs1967309 genotype AA): R
- HR for time to events, dalcetrapib treatment arm versus placebo arm (rs1967309 genotype GA): 0.94
- Predicted response (rs1967309 genotype GA): PR
- HR for time to events, dalcetrapib treatment arm versus placebo arm (rs1967309 genotype GG): 1.27
- Predicted response (rs1967309 genotype GG): NR
- HR (95% CI) for time to events, dalcetrapib treatment arm only, genotype comparison (rs2239310 AG vs AA): 0.71 (0.58,0.87)
- HR (95% CI) for time to events, dalcetrapib treatment arm only, genotype comparison (rs2239310 GG vs AA): 0.43 (0.29, 0.63)
- HR for time to events, dalcetrapib treatment arm versus placebo arm (rs2239310 genotype AA): 1.16
- Predicted response (rs2239310 genotype AA): NR
- HR for time to events, dalcetrapib treatment arm versus placebo arm (rs2239310 genotype AG): 0.96
- Predicted response (rs2239310 genotype AG): PR
- HR for time to events, dalcetrapib treatment arm versus placebo arm (rs2239310 genotype GG): 0.6
- Predicted response (rs2239310 genotype GG): R
- HR (95% CI) for time to events, dalcetrapib treatment arm only, genotype comparison (rs2283497 AA vs CC): 0.53 (0.37, 0.76)
- HR (95% CI) for time to events, dalcetrapib treatment arm only, genotype comparison (rs2283497 CA vs CC): 0.83 (0.67, 1.02)
- HR for time to events, dalcetrapib treatment arm versus placebo arm (rs2283497 genotype AA): 0.57
- Predicted response (rs2283497 genotype AA): R
- HR for time to events, dalcetrapib treatment arm versus placebo arm (rs2283497 genotype CA): 0.99
- Predicted response (rs2283497 genotype CA): PR
- HR for time to events, dalcetrapib treatment arm versus placebo arm (rs2283497 genotype CC): 1.23
- Predicted response (rs2283497 genotype CC): NR
- HR (95% CI) for time to events, dalcetrapib treatment arm only, genotype comparison (rs2531967 AA vs GG): 0.5 (0.29, 0.86)
- HR (95% CI) for time to events, dalcetrapib treatment arm only, genotype comparison (rs2531967 GA vs GG): 0.75 (0.61, 0.93)
- HR for time to events, dalcetrapib treatment arm versus placebo arm (rs2531967 genotype AA): 0.67
- Predicted response (rs2531967 genotype AA): R
- HR for time to events, dalcetrapib treatment arm versus placebo arm (rs2531967 genotype GA): 0.86
- Predicted response (rs2531967 genotype GA): PR
- HR for time to events, dalcetrapib treatment arm versus placebo arm (rs2531967 genotype GG): 1.12
- Predicted response (rs2531967 genotype GG): NR
- HR (95% CI) for time to events, dalcetrapib treatment arm only, genotype comparison (rs3730119 AA vs GG): 0.49 (0.22, 1.1)
- HR (95% CI) for time to events, dalcetrapib treatment arm only, genotype comparison (rs3730119 GA vs GG): 0.78 (0.62, 0.99)
- HR for time to events, dalcetrapib treatment arm versus placebo arm (rs3730119 genotype AA): 0.48
- Predicted response (rs3730119 genotype AA): R
- HR for time to events, dalcetrapib treatment arm versus placebo arm (rs3730119 genotype GA): 0.86
- Predicted response (rs3730119 genotype GA): PR
- HR for time to events, dalcetrapib treatment arm versus placebo arm (rs3730119 genotype GG): 1.08
- Predicted response (rs3730119 genotype GG): NR
- HR (95% CI) for time to events, dalcetrapib treatment arm only, genotype comparison (rs4786454 AA vs GG): 0.37 (0.15, 0.9)
- HR (95% CI) for time to events, dalcetrapib treatment arm only, genotype comparison (rs4786454 GA vs GG): 0.69 (0.54, 0.87)
- HR for time to events, dalcetrapib treatment arm versus placebo arm (rs4786454 genotype AA): 0.52
- Predicted response (rs4786454 genotype AA): R
- HR for time to events, dalcetrapib treatment arm versus placebo arm (rs4786454 genotype GA): 0.89
- Predicted response (rs4786454 genotype GA): PR
- HR for time to events, dalcetrapib treatment arm versus placebo arm (rs4786454 genotype GG): 1.06
- Predicted response (rs4786454 genotype GG): NR
- HR (95% CI) for time to events, dalcetrapib treatment arm only, genotype comparison (rs8049452 AA vs GG): 1.98 (1.51, 2.61)
- HR (95% CI) for time to events, dalcetrapib treatment arm only, genotype comparison (rs8049452 GA vs GG): 1.26 (0.99, 1.6)
- HR for time to events, dalcetrapib treatment arm versus placebo arm (rs8049452 genotype AA): 1.55
- Predicted response (rs8049452 genotype AA): NR
- HR for time to events, dalcetrapib treatment arm versus placebo arm (rs8049452 genotype GA): 0.97
- Predicted response (rs8049452 genotype GA): PR
- HR for time to events, dalcetrapib treatment arm versus placebo arm (rs8049452 genotype GG): 0.78
- Predicted response (rs8049452 genotype GG): R
- HR (95% CI) for time to events, dalcetrapib treatment arm only, genotype comparison (rs8061182 AG vs AA): 1.23 (0.98, 1.56)
- HR (95% CI) for time to events, dalcetrapib treatment arm only, genotype comparison (rs8061182 GG vs AA): 1.81 (1.37, 2.39)
- HR for time to events, dalcetrapib treatment arm versus placebo arm (rs8061182 genotype AA): 0.79
